This passage reports EC50 results from US8722704B2, “Modulators of ATP-binding cassette-transporters” (Vertex Pharmaceuticals Incorporated, priority 2007, dated 2014).

The target of this assay is T1, ΔF508-CFTR (Homo sapiens, UniProt P13569, DEL508-508).
T1 construct: expressed in transfected cells
Nature of the assay: Assays for detecting and measuring ΔF508-CFTR correction properties (membrane potential optical assay; Table 3 does not say which assay). The format is cell-based. Particulars: IC50/EC50 bins; NIH3T3 mouse fibroblasts stably expressing ΔF508-CFTR; read-out: Binned EC50. An excerpt:
The optical membrane potential assay utilized voltage-sensitive FRET sensors described by Gonzalez and Tsien (See Gonzalez, J. E. and R. Y. Tsien (1995) “Voltage sensing by fluorescence resonance energy transfer in single cells” Biophys J 69(4): 1272-80, and Gonzalez, J. E. and R. Y. Tsien (1997) “Improved indicators of cell membrane potential that use fluorescence resonance energy transfer” Chem Biol 4(4): 269-77) in combination with instrumentation for measuring fluorescence changes such as the Voltage/Ion Probe Reader (VIPR) (See Gonzalez, J. E., K. Oades, et al. (1999) “Cell-based assays and instrumentation for screening ion-channel targets” Drug Discov Today 4(9): 431-439).
These voltage sensitive assays are based on the change in fluorescence resonant energy transfer (FRET) between the membrane-soluble, voltage-sensitive dye, DiSBAC2(3), and a fluorescent phospholipid, CC2-DMPE, which is attached to the outer leaflet of the plasma membrane and acts as a FRET donor. Changes in membrane potential (Vm) cause the negatively charged DiSBAC2(3) to redistribute across the plasma membrane and the amount of energy transfer from CC2-DMPE changes accordingly. The changes in fluorescence emission were monitored using VIPR™ II, which is an integrated liquid handler and fluorescent detector designed to conduct cell-based screens in 96- or 384-well microtiter plates.
To identify small molecules that correct the trafficking defect associated with ΔF508-CFTR; a single-addition HTS assay format was developed. The cells were incubated in serum-free medium for 16 hrs at 37° C. in the presence or absence (negative control) of test compound. As a positive control, cells plated in 384-well plates were incubated for 16 hrs at 27° C. to “temperature-correct” ΔF508-CFTR. The cells were subsequently rinsed 3× with Krebs Ringers solution and loaded with the voltage-sensitive dyes. To activate ΔF508-CFTR, 10 μM forskolin and the CFTR potentiator, genistein (20 μM), were added along with Cl^−-free medium to each well. The addition of Cl^−-free medium promoted Cl^− efflux in response to ΔF508-CFTR activation and the resulting membrane depolarization was optically monitored using the FRET-based voltage-sensor dyes. […]
3. Solutions • Bath Solution #1: (in mM) NaCl 160, KCl 4.5, CaCl2 2, MgCl2 1, HEPES 10, pH 7.4 with NaOH. • Chloride-free bath solution: Chloride salts in Bath Solution #1 are substituted with gluconate salts. • CC2-DMPE: Prepared as a 10 mM stock solution in DMSO and stored at −20° C. • DiSBAC2(3): Prepared as a 10 mM stock in DMSO and stored at −20° C.
NIH3T3 mouse fibroblasts stably expressing ΔF508-CFTR are used for optical measurements of membrane potential. The cells are maintained at 37° C. in 5% CO2 and 90% humidity in Dulbecco's modified Eagle's medium supplemented with 2 mM glutamine, 10% fetal bovine serum, 1×NEAA, β-ME, 1×pen/strep, and 25 mM HEPES in 175 cm^2 culture flasks. For all optical assays, the cells were seeded at 30,000/well in 384-well matrigel-coated plates and cultured for 2 hrs at 37° C. before culturing at 27° C. for 24 hrs for the potentiator assay. For the correction assays, the cells are cultured at 27° C. or 37° C. with and without compounds for 16-24 hours.

T1 sequence (P13569 with tags, fused parts or gaps DEL508-508): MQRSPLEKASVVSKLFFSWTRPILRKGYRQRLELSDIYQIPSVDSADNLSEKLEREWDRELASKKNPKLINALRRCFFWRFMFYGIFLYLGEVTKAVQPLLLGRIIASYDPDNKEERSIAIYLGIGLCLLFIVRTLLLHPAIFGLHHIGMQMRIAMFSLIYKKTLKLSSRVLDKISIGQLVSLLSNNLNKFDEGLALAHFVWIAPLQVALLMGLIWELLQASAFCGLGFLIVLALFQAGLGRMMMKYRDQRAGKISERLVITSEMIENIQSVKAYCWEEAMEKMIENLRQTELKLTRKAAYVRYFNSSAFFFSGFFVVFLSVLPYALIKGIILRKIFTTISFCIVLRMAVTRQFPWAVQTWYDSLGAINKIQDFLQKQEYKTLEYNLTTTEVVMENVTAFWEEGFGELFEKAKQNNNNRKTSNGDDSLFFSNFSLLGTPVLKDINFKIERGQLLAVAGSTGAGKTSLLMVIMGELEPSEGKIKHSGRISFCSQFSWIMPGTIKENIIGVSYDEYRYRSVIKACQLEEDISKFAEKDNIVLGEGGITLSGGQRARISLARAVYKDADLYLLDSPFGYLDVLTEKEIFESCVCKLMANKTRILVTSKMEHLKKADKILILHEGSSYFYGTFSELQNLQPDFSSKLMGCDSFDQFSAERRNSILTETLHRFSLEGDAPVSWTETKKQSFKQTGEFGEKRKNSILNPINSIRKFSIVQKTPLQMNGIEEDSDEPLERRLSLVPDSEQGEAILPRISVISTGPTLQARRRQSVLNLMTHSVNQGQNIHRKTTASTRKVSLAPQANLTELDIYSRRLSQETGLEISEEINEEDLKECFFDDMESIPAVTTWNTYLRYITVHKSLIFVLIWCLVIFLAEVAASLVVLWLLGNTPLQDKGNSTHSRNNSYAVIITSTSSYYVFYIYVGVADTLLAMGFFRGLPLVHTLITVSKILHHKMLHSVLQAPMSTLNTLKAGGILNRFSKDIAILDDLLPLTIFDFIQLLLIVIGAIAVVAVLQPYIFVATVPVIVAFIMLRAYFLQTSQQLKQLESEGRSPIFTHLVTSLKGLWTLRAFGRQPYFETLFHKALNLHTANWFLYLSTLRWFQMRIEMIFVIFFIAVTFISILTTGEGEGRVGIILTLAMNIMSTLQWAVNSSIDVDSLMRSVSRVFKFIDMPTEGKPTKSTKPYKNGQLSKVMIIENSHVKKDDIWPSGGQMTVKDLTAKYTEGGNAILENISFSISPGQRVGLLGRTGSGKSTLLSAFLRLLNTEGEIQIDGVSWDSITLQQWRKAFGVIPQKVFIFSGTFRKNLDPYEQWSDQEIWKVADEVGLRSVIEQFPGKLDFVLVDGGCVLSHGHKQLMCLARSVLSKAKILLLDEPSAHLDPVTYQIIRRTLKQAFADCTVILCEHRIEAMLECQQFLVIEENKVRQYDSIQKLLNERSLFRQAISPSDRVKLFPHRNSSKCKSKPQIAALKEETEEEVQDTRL

Take `C[N+](C)(C)CCOC(=O)c1cccc(-c2nc(NC(=O)C3(c4ccc5c(c4)OC(F)(F)O5)CC3)cc3ccccc23)c1` [Compound 28, 2-(3-(3-(1-(2,2-Difluorobenzo[d][1,3]dioxol-5-yl)cyclopropanecarboxamido)isoquinolin-1-yl)benzoyloxy)-N,N,N-trimethylethanaminium chloride]: the EC50 is at most 2000 nM.
